Laboratory results taken from publication PMC8960621, “Solution speciation and human serum protein binding of indium(III) complexes of 8-hydroxyquinoline, deferiprone and maltol” (Journal of Biological Inorganic Chemistry, 2022).
Marks after values point to notes of the source that are not given here.

What was measured:
[1] = pH-potentiometric titrations: proton dissociation constants of the ligands and overall stability constants of their In(III) complexes; type: physicochemical; settings: pH-pot, T = 25.0 °C, I = 0.20 M (KCl); for logβ [InL2] / logβ [InL3] / logβ [InL]: In(III) complex of the ligand L; for pKa: water
Description: (§1) To characterize the solution stability of the In(III) complexes, pH-potentiometric and UV–vis spectrophotometric titrations were performed in water in the presence of 0.20 M chloride ions. However, stability constants for the HQ complexes could be obtained only by the latter method due to their much worse water solubility compared to the other compounds. HQS was involved as a water-soluble analogue of HQ bearing identical coordination mode. Stability constants of deferiprone were also determined by both methods in the present work to validate our experimental setup and data treatment, since the In(III) ‒ deferiprone system was already characterized by Orvig and collaborators. The hydrolysis of In(III) and its interaction with chloride ions were taken into consideration, and stability constants of the hydoxido and chlorido complexes were utilized for our calculations. As a first step, the proton dissociation constants (Ka) were determined for the ligands (Table 1) showing good agreement with the previously published data (see Table 1). The overall stability constants obtained for the octahedral In(III)-deferiprone complexes by both methods (Table 1) are fairly similar to those reported at 150 mM NaCl. […] Complexes with the same stoichiometry were also formed with the O,N-donor containing HQS (Table 1). […] Stability constants for the HQ complexes (Table 1) were determined by the deconvolution of UV–vis spectra recorded at various pH values (Fig. 1a), and the computed molar absorbance spectra for the individual ligand and complex species are shown in Fig. 1b. Due to the lack of d-d or charge transfer bands, the molar absorbance spectra of the complexes represent similar λmax values to that of the completely deprotonated form of the ligand; although, the shape of the spectra is different and is quite similar to that was found for the Ga(III) complexes.
The pH-potentiometric measurements for the determination of the proton dissociation constants of the ligands (HQS, maltol, deferiprone) and the overall stability constants of their In(III) complexes were carried out at 25.0 ± 0.1 °C in water at an ionic strength of 0.20 M (KCl, Sigma-Aldrich). The titrations were performed with a carbonate-free KOH solution of known concentration (0.20 M). An Orion 710A pH-meter equipped with a Metrohm combined electrode (type 6.0234.100) and a Metrohm 665 Dosimat burette were used for the pH-potentiometric measurements. […] The average water ionization constant, pKw, is 13.76 ± 0.01, which corresponds well to literature data. The reproducibility of the titration points included in the calculations was within 0.005 pH units. The pH-potentiometric titrations were performed in the pH range 2.0–11.5. The initial volume of the samples was 10.0 mL, and the ligand concentration was 3 mM and metal ion-to-ligand ratios of 1:1 to 1:4 were used. The fitting of the titration curves was less than 0.01 mL. (The fitting parameter is the average difference between the experimental and calculated titration curves expressed in the volume of the titrant.) Samples were deoxygenated by bubbling purified argon through them for ca. 10 min prior to the measurements. The proton dissociation constants of the ligands, the stoichiometry and the overall stability constants of the complexes were determined with the computer program HYPERQUAD [60]. Overall stability constants of the complexes (β(MpLqHr)) is defined for the general equilibrium pM + qL + rH ⇌ MpLqHr as β (MpLqHr) = [MpLqHr]/[M]^p[L]^q[H]^r where M denotes the metal ion and L the completely deprotonated ligand. Hydrolysis constants for In(III) and stability constants for the In(III)-chlorido complexes (Table 1) are taken from references. The calculations were always made from the experimental titration data measured in the absence of any precipitate in the solution.

[2] = UV-vis spectrophotometric titrations: proton dissociation constants of the ligands and overall stability constants of their In(III) complexes; type: physicochemical; settings: T = 25.0 °C, I = 0.20 M (KCl); for logβ [InL2] / logβ [InL3] / logβ [InL]: In(III) complex of the ligand L; for pKa: water
Description: as §1
Proton dissociation of the ligands (HQ, HQS, maltol, deferiprone) and overall stability constants and the individual spectra of their complexes were calculated with the computer program PSEQUAD [43]. The spectrophotometric titrations were performed on samples of the ligands with or without In(III); the concentration of the ligands was 0.10 mM, and the metal-to-ligand ratios were 1:1, 1:2, 1:3 and 1:4 over the pH range used in pH-potentiometric measurements at 25.0 ± 0.1 °C at an ionic strength of 0.20 M (KCl).

[3] = pM* / pM values computed at pH 7.4 from stability constants; type: physicochemical; settings: for pIn (pM = –log[M(III)]): Table S1, does not account for hydrolysis of the metal ion; for pGa* (−log([M] + [M(OH)(1–4)])): pH 7.4, 1 μM Ga(III), computed from stability constants of Ref. 27 (deferiprone) or Ref. 29 (maltol, HQS, HQ); for pGa* (−log([M] + [M(OH)(1–4)])) / pIn* (−log([M] + [M(OH)(1–4)])): 10 μM ligand; for pIn* (−log([M] + [M(OH)(1–4)])): pH 7.4, 1 μM In(III)
Description: To compare the In(III) binding ability of the studied four ligands, pIn* (= negative decadic logarithm of the equilibrium concentration of the unbound metal species) values were calculated at pH 7.4 using the determined stability constants (Table 1).
Table S1. Calculated pM values for the studied In(III) complexes and their Ga analogues,
a Computed on the basis of stability constants taken from Ref. [27]. b Computed on the basis of stability
constants taken from Ref. [29] […]

[4] = set-up: method as in PMID 25398250; settings: same LMM competitors in tenfold excess, investigated separately; cited from earlier work
[5] = molecular target: T1, human serum albumin (HSA) (Homo sapiens, UniProt P02768); set-up: method as in PMID 25398250; settings: cited from earlier work
T1 construct: purchased Sigma-Aldrich A8763
T1 sequence (P02768 25-609): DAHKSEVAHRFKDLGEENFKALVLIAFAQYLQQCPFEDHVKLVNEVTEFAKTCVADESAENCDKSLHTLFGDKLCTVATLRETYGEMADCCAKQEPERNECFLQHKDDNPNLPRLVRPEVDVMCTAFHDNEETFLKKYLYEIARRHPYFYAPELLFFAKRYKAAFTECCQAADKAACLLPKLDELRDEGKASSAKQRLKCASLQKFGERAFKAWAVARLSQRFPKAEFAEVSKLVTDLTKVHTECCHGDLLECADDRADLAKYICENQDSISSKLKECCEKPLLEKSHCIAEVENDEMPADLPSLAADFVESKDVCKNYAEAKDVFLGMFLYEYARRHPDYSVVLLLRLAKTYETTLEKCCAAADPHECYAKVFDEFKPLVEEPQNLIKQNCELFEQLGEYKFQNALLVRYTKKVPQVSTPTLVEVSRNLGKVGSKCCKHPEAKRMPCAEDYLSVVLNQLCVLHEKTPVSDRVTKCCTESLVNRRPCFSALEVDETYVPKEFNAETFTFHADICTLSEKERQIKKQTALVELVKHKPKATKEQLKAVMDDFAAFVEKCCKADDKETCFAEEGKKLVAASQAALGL

apoTf = molecular target: T2, apoTf (Homo sapiens, UniProt P02787); test: Interaction with (apo)Tf: ligand displacement and binding of the intact complex (UV-vis, fluorescence, ultrafiltration); settings: UV–vis and fluorescence, pH 7.40
T2 construct: purchased Sigma-Aldrich T2036
T2 sequence (P02787 20-698): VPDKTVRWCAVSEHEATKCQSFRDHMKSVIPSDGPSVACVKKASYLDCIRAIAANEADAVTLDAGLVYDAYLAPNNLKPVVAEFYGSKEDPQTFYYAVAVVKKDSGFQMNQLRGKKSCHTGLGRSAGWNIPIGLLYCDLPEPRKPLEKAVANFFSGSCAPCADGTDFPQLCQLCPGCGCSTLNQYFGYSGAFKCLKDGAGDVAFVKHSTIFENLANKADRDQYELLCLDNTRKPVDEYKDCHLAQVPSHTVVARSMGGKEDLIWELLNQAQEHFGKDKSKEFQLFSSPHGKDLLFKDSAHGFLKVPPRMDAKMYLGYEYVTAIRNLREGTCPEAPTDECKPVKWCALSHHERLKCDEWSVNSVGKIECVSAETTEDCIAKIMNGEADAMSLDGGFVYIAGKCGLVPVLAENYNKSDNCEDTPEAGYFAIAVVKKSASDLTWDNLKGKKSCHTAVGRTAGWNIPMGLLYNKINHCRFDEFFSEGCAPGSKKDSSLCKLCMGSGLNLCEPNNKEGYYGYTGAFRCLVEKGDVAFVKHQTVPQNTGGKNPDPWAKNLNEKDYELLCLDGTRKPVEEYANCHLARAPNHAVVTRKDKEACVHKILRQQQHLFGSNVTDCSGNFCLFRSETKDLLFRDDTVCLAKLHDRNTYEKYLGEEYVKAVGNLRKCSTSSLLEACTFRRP
Description: Therefore, UV–vis and fluorescence emission spectra of InQ3 were recorded in the presence of increasing amounts of apoTf (Fig. 5a, b). After a short initial phase, the absorbance band of InQ3 is reduced gradually by the addition of the protein, while the development of the new band at lower wavelengths (at ca. 310 nm) refers to the liberation of HQ. Namely, there is a competition for In(III) ion between the ligand and the iron-binding sites of apoTf. Absorbance values depicted at 370 nm and 310 nm (Fig. 5c) saturate roughly to the corresponding values of the free ligand and outline a sigmoidal shape. Fluorescence intensity of the same sample set (Fig. 5b, d) was enhanced and moderately blue shifted (from λmax = 540 nm to 532 nm) until the addition of ca. 0.2 equiv. apoTf. […] Then, by the addition of more apoTf, intensities decreased and λmax shifted further to shorter wavelengths (527 nm). […] Based on this and the results of apoTf quenching (vide supra) protein binding of the non-dissociated complex is presumed. This is further supported by fluorescence lifetime measurements; where new lifetime components τ3 = 4.7 ± 0.2 ns and τ4 = 13.8 ± 0.4 ns appeared for InQ3 in the presence of 0.1 – 0.3 equiv. apoTf (after 1 min waiting time). […] Here, the sigmoid shape of the UV–vis absorbance was seen again (Fig. S5) and the shifted inflection point in comparison to the titration with apoTf underlines the lower In(III) binding capacity of Tf. […]
In the case of InD3, the absorbance bands of the metal complex and apoTf overlap in great extent, however, spectra can be deconvoluted to the spectra of InD3, deferiprone and apoTf (see Fig S6 for details), and molar fractions of the respective species can be calculated (Fig. 6). Ultrafiltration experiments were carried out as well for the InD3 – apoTf system and the non-protein bound LMM fractions were analyzed by UV–vis spectrophotometry (Fig. 6). […] The complex dissociated in line with the addition of apoTf and a practically quantitative displacement of deferiprone seems to take place by the addition of ca. 0.5 equiv. apoTf. […]

apo-transferrin (apoTf) [6] = molecular target: T3, apo-transferrin (apoTf) (Homo sapiens, UniProt P02787); test: Kinetics of the reaction with apoTf followed by UV-vis spectrophotometry; type: binding; settings: pH 7.40 (InCl3: 2 equiv.)
T3 construct: purchased Sigma-Aldrich T2036
T3 sequence (P02787 20-698): as above
Description: Firstly, the kinetics of the reaction between apoTf and InCl3 and the complexes was studied by UV–vis spectrophotometry. The reaction of 2 equiv. […] At the same time Harris et al. have observed slow equilibration with InCl3, that was accelerated (to 6 h) in the presence of NTA [18]. In the case of InQ3 and InD3, the progress of apoTf binding could be followed through the ligand bands of the complexes. […] The Ga(III)-analogue GaQ3 interacted within 1 h with apoTf under similar conditions.
For (apo)Tf containing samples, complex concentrations were 20 μM and 0–2.5 equiv. protein was added. Reference spectra for the complexes, ligands and protein were recorded as well. Samples prepared with blood serum contained three-fold diluted serum and 10 μM metal complexes. UV–vis spectra presented in this paper for complexes InD3 or InQ3 are subtracted by the spectrum of reference protein (HSA (apo)Tf or serum) sample in all cases in favour of the better interpretation of the results.

apo-transferrin (apoTf) [7] = molecular target: T3, apo-transferrin (apoTf); settings: in the presence of NTA; cited from earlier work

Compound: Cc1c(O)c(=O)ccn1C [Deferiprone, 3-Hydroxy-1,2-dimethylpyridin-4(1H)-one]
- logβ [InL2] [1]: 23.50 ± 0.06^ h
- logβ [InL3] [1]: 32.66 ± 0.08^ h
- logβ [InL] [1]: 13.67 ± 0.04^ h
- pKa ([1]; read-out: pKa (H2L)): 3.66 ± 0.01
- pKa ([1]; read-out: pKa (HL)): 9.72 ± 0.01
- logβ [InL2] [2]: 23.88 ± 0.06
- logβ [InL3] [2]: 33.45 ± 0.03
- logβ [InL] [2]: 13.72 ± 0.03
- pKa ([2]; read-out: pKa (H2L)): 3.57 ± 0.02
- pIn (pM = –log[M(III)]) [3]: 16.25
- pGa* (−log([M] + [M(OH)(1–4)])) [3]: 8.83^i
- pIn* (−log([M] + [M(OH)(1–4)])) [3]: 7.95

Compound: Cc1occc(=O)c1[O-].Cc1occc(=O)c1[O-].Cc1occc(=O)c1[O-].[Ga+3] [GaM3, Tris(3-Hydroxy-2-methyl-4H-pyran-4-onato)gallium(III)]
- effect of LMM competitors on the complex [4]: practically not affected
- interaction with HSA [5]: no interaction

Compound: Oc1cccc2cccnc12 [HQ, 8-Hydroxyquinoline]
- logβ [InL2] [2]: 22.87 ± 0.03
- logβ [InL3] [2]: 32.64 ± 0.06
- logβ [InL] [2]: 13.43 ± 0.06
- pKa ([2]; read-out: pKa (H2L)): 4.9 ± 0.02
- pKa ([2]; read-out: pKa (HL)): 9.63 ± 0.02
- binding via intermolecular interactions to apoTf (and Tf) (apoTf): can be excluded
- pIn (pM = –log[M(III)]) [3]: 16.48
- pGa* (−log([M] + [M(OH)(1–4)])) [3]: 7.86^j
- pIn* (−log([M] + [M(OH)(1–4)])) [3]: 8.18

Compound: O=S(=O)(O)c1ccc(O)c2ncccc12 [HQS, 8-Hydroyquinoline-5-sulfonate]
- logβ [InL2] [1]: 21.31 ± 0.07
- logβ [InL3] [1]: 28.95 ± 0.09
- logβ [InL] [1]: 12.64 ± 0.05
- pKa ([1]; read-out: pKa (H2L)): 3.89 ± 0.02
- pKa ([1]; read-out: pKa (HL)): 8.46 ± 0.02
- logβ [InL2] [2]: 21.18 ± 0.06
- logβ [InL3] [2]: 29.66 ± 0.06
- logβ [InL] [2]: 12.29 ± 0.06
- pKa ([2]; read-out: pKa (H2L)): 3.7 ± 0.04
- pKa ([2]; read-out: pKa (HL)): 8.27 ± 0.04
- pIn (pM = –log[M(III)]) [3]: 16.23
- pGa* (−log([M] + [M(OH)(1–4)])) [3]: 7.92^j
- pIn* (−log([M] + [M(OH)(1–4)])) [3]: 7.93

Compound: [Cl-].[Cl-].[Cl-].[In+3] [InCl3, reference compound]
- time to reach equilibrium in the reaction with apoTf (apo-transferrin (apoTf) [6]): ca. 2 h
- equilibration time with Tf (apo-transferrin (apoTf) [7]): 6 h

Compound: Cc1occc(=O)c1O [Maltol, 3-Hydroxy-2-methyl-4H-pyran-4-one]
- logβ [InL2] [1]: 18.59 ± 0.03
- logβ [InL3] [1]: 24.38 ± 0.05
- logβ [InL] [1]: 11.03 ± 0.03
- pKa ([1]; read-out: pKa (HL)): 8.47 ± 0.01
- logβ [InL2] [2]: 18.78 ± 0.03
- logβ [InL3] [2]: 25.04 ± 0.06
- logβ [InL] [2]: 10.77 ± 0.03
- pKa ([2]; read-out: pKa (HL)): 8.39 ± 0.02
- pIn (pM = –log[M(III)]) [3]: 14.31
- pGa* (−log([M] + [M(OH)(1–4)])) [3]: 6.00^j
- pIn* (−log([M] + [M(OH)(1–4)])) [3]: 6.01
